# Experimental data reported in patent US20150018311A1, “THERAPEUTIC BORON-CONTAINING COMPOUNDS” (priority 2012, published 2015).
# Key:
# [1] = tested on: Candida albicans MYA576 (resistant to nystatin); assay: Filter paper disc antifungal assay on agar plates; type: cell-based; details: 5 mm disc, 37° C. 24 hours
# Description: (§1) Compound 22 (the chloride salt) of table 1 was dissolved and the solution applied to a filter paper disc of diameter 5 mm. The filter paper discs were placed on plates containing the following strains of Candida albicans:
# MYA576 (resistant to nystatin).
# (§2) The compound was applied at concentrations of 0.5, 1, 5, 10, 25 and 50 μg/ml. Nystatin and fluconazole at the same concentrations were applied in the same manner. […] All strains were tested at least three times.
# (§3) Clearly, the higher the number, the greater the antifungal activity.
# [2] = tested on: M. tuberculosis; assay: Growth on solid media in presence of test compound; type: cell-based, Mycobacterium tuberculosis; details: result on solid media
# [3] = tested on: Candida albicans ATCC90028 (wild type); assay: Filter paper disc antifungal assay on agar plates; type: cell-based; details: 5 mm disc, 37° C. 24 hours
# Description: as §1
# ATCC90028 (“wild type”, i.e. not resistant to nystatin or fluconazole)
# as §2, §3
# [4] = tested on: Candida albicans ATCC38247 (resistant to fluconazole); assay: Filter paper disc antifungal assay on agar plates; type: cell-based; details: 5 mm disc, 37° C. 24 hours
# Description: as §1
# ATCC38247 (resistant to fluconazole)
# as §2, §3
# [5] = tested on: Pseudomonas aeruginosa (ATCC 27853); assay: Growth in liquid media in presence of test compound; type: cell-based
# [6] = tested on: Escherichia coli (ATCC 25922); assay: as above; type: cell-based
# [7] = tested on: Candida albicans (ATCC 90028); assay: as above; type: cell-based
# [8] = tested on: Streptococcus pyogenes (ATCC 19615); assay: as above; type: cell-based
# [9] = tested on: Staphylococcus aureus (ATCC 25923); assay: as above; type: cell-based
# [10] = tested on: Candida albicans; assay: Filter paper disc antifungal assay, Candida albicans strains overall; type: cell-based
# Description: as §1, §2, §3
smiles,measurement,setting,value
"CC1(C)C2CC3OB([C@@H](CNC(=O)[C@@H](N)Cc4ccccc4)Cc4ccc5ccccc5c4)O[C@]3(C)C1C2.Cl (stereo partly drawn) [Compound 22, α-naphthyl-β-amino-(−)-pinanedioleboronate-N-]",diameter of the area which did not show any Candida growth,"[1]; MYA576, 0.5 μg/ml",5.33 millimeters
same,diameter of the area which did not show any Candida growth,"[1]; MYA576, 1 μg/ml",6.67 millimeters
same,diameter of the area which did not show any Candida growth,"[1]; MYA576, 5 μg/ml",10.67 millimeters
same,diameter of the area which did not show any Candida growth,"[1]; MYA576, 10 μg/ml",12.67 millimeters
same,diameter of the area which did not show any Candida growth,"[1]; MYA576, 25 μg/ml",14.33 millimeters
same,diameter of the area which did not show any Candida growth,"[1]; MYA576, 50 μg/ml",15.67 millimeters
same,"Growth in the presence of test compound, M. tuberculosis",[2]; 5 mg/L,+
same,"Growth in the presence of test compound, M. tuberculosis",[2]; 50 mg/L,+
same,"Growth in the presence of test compound, M. tuberculosis",[2]; 500 mg/L,−
same,diameter of the area which did not show any Candida growth,"[3]; ATCC90028, 0.5 μg/ml",5 millimeters
same,diameter of the area which did not show any Candida growth,"[3]; ATCC90028, 1 μg/ml",6 millimeters
same,diameter of the area which did not show any Candida growth,"[3]; ATCC90028, 5 μg/ml",6.875 millimeters
same,diameter of the area which did not show any Candida growth,"[3]; ATCC90028, 10 μg/ml",11.75 millimeters
same,diameter of the area which did not show any Candida growth,"[3]; ATCC90028, 25 μg/ml",15.25 millimeters
same,diameter of the area which did not show any Candida growth,"[3]; ATCC90028, 50 μg/ml",17 millimeters
same,diameter of the area which did not show any Candida growth,"[4]; ATCC38247, 0.5 μg/ml",5 millimeters
same,diameter of the area which did not show any Candida growth,"[4]; ATCC38247, 1 μg/ml",5.21 millimeters
same,diameter of the area which did not show any Candida growth,"[4]; ATCC38247, 5 μg/ml",7.43 millimeters
same,diameter of the area which did not show any Candida growth,"[4]; ATCC38247, 10 μg/ml",12.86 millimeters
same,diameter of the area which did not show any Candida growth,"[4]; ATCC38247, 25 μg/ml",17.29 millimeters
same,diameter of the area which did not show any Candida growth,"[4]; ATCC38247, 50 μg/ml",19.14 millimeters
same,"Growth in the presence of test compound, P. aeruginosa",[5]; 5 mg/L,+
same,"Growth in the presence of test compound, P. aeruginosa",[5]; 50 mg/L,±
same,"Growth in the presence of test compound, P. aeruginosa",[5]; 500 mg/L,+
same,"Growth in the presence of test compound, E. coli",[6]; 5 mg/L,+
same,"Growth in the presence of test compound, E. coli",[6]; 50 mg/L,+
same,"Growth in the presence of test compound, E. coli",[6]; 500 mg/L,+
same,"Growth in the presence of test compound, C. albicans",[7]; 5 mg/L,+
same,"Growth in the presence of test compound, C. albicans",[7]; 50 mg/L,−
same,"Growth in the presence of test compound, C. albicans",[7]; 500 mg/L,±
same,"Growth in the presence of test compound, S. pyogenes",[8]; 5 mg/L,+
same,"Growth in the presence of test compound, S. pyogenes",[8]; 50 mg/L,−
same,"Growth in the presence of test compound, S. pyogenes",[8]; 500 mg/L,+
same,"Growth in the presence of test compound, S. aureus",[9]; 5 mg/L,+
same,"Growth in the presence of test compound, S. aureus",[9]; 50 mg/L,±
same,"Growth in the presence of test compound, S. aureus",[9]; 500 mg/L,+
same,lowest concentration at which activity was shown,[10],1 µg/mL
